From BindingDB's records for patent US11912686 (Gilead Sciences, 2024)

target: Lysophosphatidic acid receptor 1 (Homo sapiens, UniProt Q92633); experiment: Calcium Mobilization Assay
Protocol: For agonist dose curves, cells were removed from the incubator 2 hours after dye loading and transferred to the FLIPR Tetra instrument (Molecular Devices, San Jose, CA). […] After dye loading, cells were removed from the incubator and 0.3 μL of 200× antagonist was added. Cells were incubated for 60 minutes at 37° C. Antagonist activity was measured on a FLIPR Tetra. Calcium mobilization was monitored for 3.5 minutes and 10 μL 6× EC80 LPA in HBSS, 20 mM HEPES, and 0.1% BSA was added to the cells 5 seconds into the assay. Signal amplitude (Maximum minus minimum) values were plotted against log10 of antagonist concentration using Dose Response T

Lysophosphatidic acid receptor 1, sequence (Q92633 whole entry): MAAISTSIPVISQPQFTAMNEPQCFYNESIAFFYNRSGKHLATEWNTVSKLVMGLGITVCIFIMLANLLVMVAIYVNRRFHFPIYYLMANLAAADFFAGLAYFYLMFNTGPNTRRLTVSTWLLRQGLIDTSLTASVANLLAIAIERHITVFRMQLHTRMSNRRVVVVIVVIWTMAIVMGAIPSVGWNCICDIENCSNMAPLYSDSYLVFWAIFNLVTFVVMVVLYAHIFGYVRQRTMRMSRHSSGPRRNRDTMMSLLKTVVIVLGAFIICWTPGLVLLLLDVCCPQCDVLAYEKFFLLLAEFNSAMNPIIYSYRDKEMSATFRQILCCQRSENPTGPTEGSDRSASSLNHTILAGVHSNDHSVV

For `C[C@@H](OC(=O)Nc1c(-c2ccc(NC(=O)N3CCOCC3)cn2)nnn1C)c1cccnc1Cl` [US11912686, Compound 189], which EC50 is on record?
Its EC50 is 0.989 µM.

Which EC50 does the source give for `C[C@@H](OC(=O)Nc1c(-c2ccc(NC(=O)[C@H]3C[C@@](F)(C#N)C3)cn2)nnn1C)c1cccnc1Cl` [US11912686, Compound 185] here?
Its EC50 is 1.7 µM.

Which EC50 does the source give for `CCNC(=O)Nc1ccc(-c2nnn(C)c2NC(=O)O[C@H](C)c2cccnc2Cl)cn1` [US11912686, Compound 4] here?
The EC50 was no less than 10 µM.
